Source: ChEMBL document CHEMBL3045799, “Effect of Candidatus Liberibacter asiaticus infection on susceptibility of Asian citrus psyllid, Diaphorina citri, to selected insecticides” (2011)

Legend:
Assay type in all cases: functional
[1] = test system: Diaphorina citri; assay: Insecticidal activity against Diaphorina citri assessed as mortality after 48 hr
[2] = test system: Diaphorina citri; assay: Selectivity ratio of LC50 for Diaphorina citri to LC50 for Diaphorina citri infected with Candidatus Liberibacter asiaticus
[3] = test system: Diaphorina citri; assay: Insecticidal activity against Diaphorina citri infected with Candidatus Liberibacter asiaticus assessed as mortality after 48 hr

SMILES	LC50 [1]	RatioLC50 [2]	LC50 [3]
CCO[C@@H]1[C@@H](OC)[C@H](C)O[C@@H](O[C@@H]2C[C@H]3CC[C@@H]4[C@@H](C=C5C(=O)[C@H](C)[C@@H](O[C@H]6CC[C@H](N(C)C)[C@@H](C)O6)CCC[C@H](CC)OC(=O)C[C@H]54)[C@@H]3C2)[C@@H]1OC.CCO[C@@H]1[C@@H](OC)[C@H](C)O[C@@H](O[C@H]2C[C@H]3[C@@H]4C=C5C(=O)[C@H](C)[C@@H](O[C@H]6CC[C@H](N(C)C)[C@@H](C)O6)CCC[C@H](CC)OC(=O)C[C@H]5[C@@H]4C=C(C)[C@@H]3C2)[C@@H]1OC	0.48 mgAi/L	1.2	0.2 mgAi/L
CCOP(=S)(OCC)Oc1nc(Cl)c(Cl)cc1Cl [CHLORPYRIFOS]	0.78 mgAi/L	2.8	0.28 mgAi/L
CC1(C)C(C(=O)OC(C#N)c2cccc(Oc3ccccc3)c2)C1(C)C (configuration not stated) [FENPROPATHRIN]	0.06 mgAi/L	1.2	0.05 mgAi/L
O=[N+]([O-])/N=C1\NCCN1Cc1ccc(Cl)nc1 [IMIDACLOPRID]	0.47 mgAi/L	3.1	0.15 mgAi/L
